Several values for one entry are separate records, joined by “and”; a condition that tells them apart may be missing. Identical values can stand only once. Inconclusive results and toxic doses are left out.

For this assay, the system named is L1210 leukemia ip in BDF1 mice, survival T/C. In words: NCI In Vivo Anticancer Drug Screen. Data for tumor model L1210 Leukemia (intraperitoneal) in B6D2F1 (BDF1) mice. The settings on record: endpoint: mean survival time, higher = longer survival. In outline:
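In this screen, tumor-bearing mice given compound are compared to those given vehicle, and their survival values are reported as a treated-to-control quotient.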

Where [1] appears, read: dose: 100.0 mg/kg/injection, schedule: Q04DX003 (ip), vehicle: saline with Tween-80.
The mark [2] stands for this setting: dose: 200.0 mg/kg/injection, schedule: Q04DX003 (ip), vehicle: saline with Tween-80.
Where [3] appears, read: dose: 400.0 mg/kg/injection, schedule: Q04DX003 (ip), vehicle: saline with Tween-80.
The mark [4] stands for this setting: dose: 100.0 mg/kg/injection, schedule: Q04DX003 (ip), vehicle: Klucel (hydroxypropylcellulose) (HPC).
Setting [5] is: dose: 200.0 mg/kg/injection, schedule: Q04DX003 (ip), vehicle: Klucel (hydroxypropylcellulose) (HPC).
Setting [6] is: dose: 400.0 mg/kg/injection, schedule: Q04DX003 (ip), vehicle: Klucel (hydroxypropylcellulose) (HPC).
Setting [7] is: dose: 100.0 mg/kg/injection, schedule: Q01DX009 (ip), vehicle: Klucel (hydroxypropylcellulose) (HPC).
[8] abbreviates: dose: 200.0 mg/kg/injection, schedule: Q01DX009 (ip), vehicle: Klucel (hydroxypropylcellulose) (HPC).
[9] abbreviates: dose: 400.0 mg/kg/injection, schedule: Q01DX009 (ip), vehicle: Klucel (hydroxypropylcellulose) (HPC).
Where [10] appears, read: dose: 100.0 mg/kg/injection, schedule: Q04DX002 (ip), vehicle: Klucel (hydroxypropylcellulose) (HPC).
Setting [11] is: dose: 200.0 mg/kg/injection, schedule: Q04DX002 (ip), vehicle: Klucel (hydroxypropylcellulose) (HPC).
Where [12] appears, read: dose: 400.0 mg/kg/injection, schedule: Q04DX002 (ip), vehicle: Klucel (hydroxypropylcellulose) (HPC).
Setting [13] is: dose: 100.0 mg/kg/injection, schedule: Q01DX009 (ip), vehicle: saline with Tween-80.
The mark [14] stands for this setting: dose: 100.0 mg/kg/injection, schedule: Q04DX002 (ip), vehicle: saline with Tween-80.
Where [15] appears, read: dose: 200.0 mg/kg/injection, schedule: Q01DX009 (ip), vehicle: saline with Tween-80.
The mark [16] stands for this setting: dose: 200.0 mg/kg/injection, schedule: Q04DX002 (ip), vehicle: saline with Tween-80.
Setting [17] is: dose: 400.0 mg/kg/injection, schedule: Q04DX002 (ip), vehicle: saline with Tween-80.

As to `C=CCC(Cl)(C(=O)OC)C(=O)OC`, the T/C is 91 % of control under setting [1], 89 % of control under setting [2] and 94 % of control under setting [3].

With `COc1ccc(NC(=O)ON(C)C)cc1`, the T/C (dose: 100.0 mg/kg/injection, schedule: Q04DX002 (ip), vehicle: DMSO) was 111 % of control; the T/C (dose: 200.0 mg/kg/injection, schedule: Q04DX002 (ip), vehicle: DMSO) was 108 % of control; the T/C (dose: 400.0 mg/kg/injection, schedule: Q04DX002 (ip), vehicle: DMSO) is 101 % of control.

Regarding `Cc1ccc(S(=O)(=O)N(C)c2cc(Cl)c(I)cc2Cl)cc1`, the T/C was 97 % of control (dose: 100.0 mg/kg/injection, schedule: Q01DX001 (ip), vehicle: Klucel (hydroxypropylcellulose) (HPC)); 93 % of control and 94 % of control under setting [4]; 97 % of control (dose: 200.0 mg/kg/injection, schedule: Q01DX001 (ip), vehicle: Klucel (hydroxypropylcellulose) (HPC)); 98 % of control under setting [5]; 94 % of control (dose: 400.0 mg/kg/injection, schedule: Q01DX001 (ip), vehicle: Klucel (hydroxypropylcellulose) (HPC)); 97 % of control and 98 % of control under setting [6].

For `Cc1ccc2nc3c4ccccc4c4ccccc4c3nc2c1`, the T/C runs as follows: under setting [7], 101 % of control; under setting [4], 105 % of control; under setting [8], 102 % of control; under setting [5], 105 % of control; under setting [9], 101 % of control; under setting [6], 98 % of control.

On to `CSc1c(Cl)c(C(Cl)(Cl)Cl)nc2ccccc12`, for which the T/C reads like this: (dose: 12.5 mg/kg/injection, schedule: Q01DX009 (ip), vehicle: saline with Tween-80) 93 % of control; (dose: 25.0 mg/kg/injection, schedule: Q01DX009 (ip), vehicle: saline with Tween-80) 93 % of control; (dose: 50.0 mg/kg/injection, schedule: Q01DX009 (ip), vehicle: saline with Tween-80) 103 % of control and 104 % of control.

For `Cc1cn(C)c2nccnc12`, the T/C was 104 % of control (dose: 25.0 mg/kg/injection, schedule: Q01DX009 (ip), vehicle: water); 110 % of control (dose: 50.0 mg/kg/injection, schedule: Q01DX009 (ip), vehicle: water); 98 % of control (dose: 100.0 mg/kg/injection, schedule: Q01DX009 (ip), vehicle: water).

With `O=C(Nc1nccs1)Nc1cccc2ccccc12`, the T/C is, setting by setting: under setting [10], 93 % of control; under setting [11], 93 % of control; under setting [12], 93 % of control.

Regarding `Cc1cc(C)cc(OC(=O)Nc2ccccc2Cl)c1`, the T/C runs as follows: under setting [7], 88 % of control; under setting [4], 98 % of control; under setting [8], 92 % of control; under setting [5], 98 % of control; under setting [9], 86 % of control; under setting [6], 98 % of control.

For the molecule `CC(=O)N1C(=O)NC(=O)C1(C)c1cccs1` (stereo not drawn), the T/C is 104 % of control under setting [1], 98 % of control under setting [2] and 105 % of control under setting [3].

With `Cc1ccc(Cl)cc1NC(=O)Nc1cc(Cl)c(Cl)cc1C`, the T/C is, setting by setting: (dose: 50.0 mg/kg/injection, schedule: Q04DX003 (ip), vehicle: saline with Tween-80) 94 % of control and 88 % of control; (dose: 100.0 mg/kg/injection, schedule: Q01DX001 (ip), vehicle: saline with Tween-80) 100 % of control; under setting [13], 95 % of control and 97 % of control; under setting [14], 95 % of control and 106 % of control; under setting [1], 96 % of control; (dose: 200.0 mg/kg/injection, schedule: Q01DX001 (ip), vehicle: saline with Tween-80) 86 % of control. The T/C reads like this: under setting [15], 93 % of control and 97 % of control; under setting [16], 97 % of control and 88 % of control; (dose: 400.0 mg/kg/injection, schedule: Q01DX001 (ip), vehicle: saline with Tween-80) 89 % of control; (dose: 400.0 mg/kg/injection, schedule: Q01DX009 (ip), vehicle: saline with Tween-80) 98 % of control and 105 % of control; under setting [17], 101 % of control and 92 % of control; under setting [3], 95 % of control and 88 % of control.

With `CC(C)(c1ccc(OCC2CO2)cc1)c1ccc(OCC2CO2)cc1` (stereo not drawn), the T/C by setting is: (dose: 100.0 mg/kg/injection, schedule: Q01DX001 (ip), vehicle: saline) 101 % of control; (dose: 200.0 mg/kg/injection, schedule: Q01DX001 (ip), vehicle: saline) 109 % of control; (dose: 400.0 mg/kg/injection, schedule: Q01DX001 (ip), vehicle: saline) 96 % of control.

Consider `CC(=N/NC(=O)c1ccc[n+](C)c1)/C(C)=N\NC(=O)c1ccc[n+](C)c1`, for which the T/C is 95 % of control (dose: 25.0 mg/kg/injection, schedule: Q01DX001 (ip), vehicle: saline) and 95 % of control (dose: 50.0 mg/kg/injection, schedule: Q01DX001 (ip), vehicle: saline).

On to `CCOC(=S)NS(=O)(=O)c1ccccc1`, for which the T/C (dose: 100.0 mg/kg/injection, schedule: Q01DX001 (ip), vehicle: acetone) was 98 % of control; the T/C (dose: 200.0 mg/kg/injection, schedule: Q01DX001 (ip), vehicle: acetone) was 110 % of control; the T/C (dose: 400.0 mg/kg/injection, schedule: Q01DX001 (ip), vehicle: acetone) is 98 % of control.

Turning to `O=NN(CCCl)C(=O)NC1CS(=O)(=O)CS(=O)(=O)C1`, the T/C (dose: 6.25 mg/kg/injection, schedule: Q01DX001 (ip), vehicle: other) is 193 % of control; the T/C (dose: 12.5 mg/kg/injection, schedule: Q01DX001 (ip), vehicle: other) is 296 % of control; the T/C (dose: 25.0 mg/kg/injection, schedule: Q01DX001 (ip), vehicle: other) was 322 % of control; the T/C (dose: 50.0 mg/kg/injection, schedule: Q01DX001 (ip), vehicle: other) is 252 % of control; the T/C (dose: 75.0 mg/kg/injection, schedule: Q01DX001 (ip), vehicle: other) is 117 % of control.

For `COC1=C(OC)C(=O)c2c(c(=O)c3ccccc3n2C)C1=O`, the T/C (dose: 25.0 mg/kg/injection, schedule: Q01DX001 (ip), vehicle: carboxymethylcellulose (CMC)) was 104 % of control; the T/C (dose: 50.0 mg/kg/injection, schedule: Q01DX001 (ip), vehicle: carboxymethylcellulose (CMC)) was 95 % of control; the T/C (dose: 100.0 mg/kg/injection, schedule: Q01DX001 (ip), vehicle: carboxymethylcellulose (CMC)) is 101 % of control.

With `COc1ccc(NC(=S)Nc2ccccc2S)cc1`, the T/C runs as follows: under setting [13], 90 % of control; under setting [14], 97 % of control; under setting [15], 97 % of control; under setting [16], 97 % of control; under setting [17], 97 % of control.

Regarding `CN(CC(=O)O)CC1C(c2ccccc2)C1c1ccccc1` (stereo not drawn), the T/C by setting is: under setting [10], 100 % of control; under setting [11], 93 % of control.

In the case of `CCOP(=O)(OCC)ON=C(Cl)Cl`, the T/C by setting is: (dose: 0.78 mg/kg/injection, schedule: Q01DX009 (ip), vehicle: saline) 97 % of control; (dose: 0.78 mg/kg/injection, schedule: Q04DX002 (ip), vehicle: saline) 101 % of control; (dose: 1.56 mg/kg/injection, schedule: Q01DX009 (ip), vehicle: saline) 97 % of control; (dose: 1.56 mg/kg/injection, schedule: Q04DX002 (ip), vehicle: saline) 98 % of control; (dose: 3.12 mg/kg/injection, schedule: Q01DX009 (ip), vehicle: Klucel (hydroxypropylcellulose) (HPC)) 95 % of control; (dose: 3.12 mg/kg/injection, schedule: Q01DX009 (ip), vehicle: saline) 93 % of control. In addition, the T/C reads like this: (dose: 3.12 mg/kg/injection, schedule: Q04DX002 (ip), vehicle: saline) 101 % of control and 92 % of control; (dose: 4.6 mg/kg/injection, schedule: Q01DX009 (ip), vehicle: Klucel (hydroxypropylcellulose) (HPC)) 105 % of control; (dose: 7.0 mg/kg/injection, schedule: Q01DX009 (ip), vehicle: Klucel (hydroxypropylcellulose) (HPC)) 96 % of control.

For `O=C(COc1ccc(Cl)c(Cl)c1)N(Cc1ccccc1)Cc1ccc[n+](Cc2ccc(Cl)cc2S(=O)(=O)F)c1`, the T/C was 95 % of control under setting [10], 95 % of control under setting [11] and 104 % of control under setting [12].

The record behind these values is PubChem BioAssay AID248 (DTP/NCI, 2004).
